The values that follow come from US7160916B2, “Method of increasing bone density or treating osteoporosis” (Yung Shin Pharmaceutical Ind. Co., Ltd., priority 2003, dated 2007).

One experiment deals with adult male rats. Put plainly: Bone loss induced by the cut of sciatic nerve. Also on record: Tibia BMD / Tibia BMC / Femur BMD / Femur BMC: unit not given here. To be noted: for Bone volume / Femur BMC / Femur BMD / Femur length / Femur weight / Tibia BMC / Tibia BMD / Tibia length / Tibia weight: i.p. 1 mg/kg daily for 1 month, mean ± S.E., n=10. Type of experiment: in vivo, rat. The source says:
Bone histomorphometry: After formalin fixation of tibia was completed, the tibiae were then decalcified in 0.5 N hydrochloric acid, dehydrated in an ascending series of ethanol solution and acetone, and embedded in paraffin. Serial sections (5 μm) were cut longitudinally and stained with Mayer's hematoxylin-eosin solution (Yang et al. (1993) Calcif Tissue Int 52:57–61). Images of the growth plate and proximal tibia were photographed using a photoMicroGraphic Digitize integrate System (MGDS; Total-Integra Technology Co., Ltd., Taipei, Taiwan). Bone volume measurements were performed on the whole secondary spongiosa, which is located under the primary spongiosa and characterized by a network of larger trabeculae. Bone volumes were calculated using an image analysis software. All measurements were done in a single-blind fashion. Ovariectomy and cut of sciatic nerve: Ovariectomy and cut of sciatic nerve were performed in adult female and male rats (3 month-old), respectively. After surgery, the rats were injected with Indazole 1 (i.p., 1 mg/Kg) or a vehicle daily for 4 weeks. On the day following the last injection, the rats were sacrificed and their tibia and femur were removed. Tibia and femur Preparation: At the end of the program, the rats were sacrificed by decapitation. The tibiae were removed, cleaned of soft tissue, and the length of the tibia was measured with a precision caliper (±0.05 mm) as described by Weinreb et al. (1991) J Bone Miner Res 6:725–731. The tibiae were fixed in 10% formaldehyde for 48 h at 4° C. for bone histomorphometry analysis. Some of the tibia and femur were also removed and kept at −20° C. for bone mineral analysis. Analysis of bone mineral density (BMD) and content (BMC): BMD and BMC of the tibia and femur were measured with a dual-energy X-ray absorptiometer (DEXA, XR-26; Norland, Fort Atkinson, Wis.). The mode adapted to the measurements of small subjects was adopted. A coefficient of variation of 0.7% was calculated from daily measurements of BMD on a lumbar phantom for more than 1 year (Yang et al. (1998) Calcif Tissue Int 63:86–90). The tibia and femur were thawed to room temperature before bone mineral analysis. The whole tibiae and femur were scanned and BMD and BMC were measured by absorptiometer.

The next experiment has as its system Male SD rats. Put plainly: Local injection into proximal tibia, bone histomorphometry (bone growth). The experiment is classed as in vivo, rat. Here is the method:
Assay of bone resorption of osteoclast: Osteoclast precursors were isolated from rat long bones as mentioned above. The cells were re-suspended in a complete DMEM medium and plated into a calcium phosphate apatite-coated 24-well plate, OAAS (Oscotec, OCT USA Inc.) at 1×10^6 cells/0.5 ml/well. The cells were cultured for 5 days in the presence of M-CSF (20 ng/ml) plus sRANKL (50 ng/ml). Indazole 1 was injected daily for additional 3 days in the absence of M-CSF and sRANKL. Culture was terminated on day 8 and the remaining cells in the plate were lysed using 1 N NaOH. Five images per well were obtained using an inverted microscope (200×), and resorbed area was measured using an image analyzer. Local injection Male SD rats weighing 70–88 gm were used. Implantation of a cannula (22G) was done from the posteriolateral side into the proximal tibial metaphysis in both limbs of rats anesthetized with pentobarbital. The cannula had its outer end in the subcutaneous tissue. Indazole 1 was percutaneously injected through the cannula into the proximal tibia once/day for 1 week. The same concentration of DMSO diluted with normal saline was injected into the right side for comparison. On day 14, the rats were sacrificed and tibiae were fixed in 10% formaldehyde for 48 h at 4° C. Bone histomorphometry: After formalin fixation of tibia was completed, the tibiae were then decalcified in 0.5 N hydrochloric acid, dehydrated in an ascending series of ethanol solution and acetone, and embedded in paraffin. Serial sections (5 μm) were cut longitudinally and stained with Mayer's hematoxylin-eosin solution (Yang et al. (1993) Calcif Tissue Int 52:57–61). Images of the growth plate and proximal tibia were photographed using a photoMicroGraphic Digitize integrate System (MGDS; Total-Integra Technology Co., Ltd., Taipei, Taiwan). Bone volume measurements were performed on the whole secondary spongiosa, which is located under the primary spongiosa and characterized by a network of larger trabeculae. Bone volumes were calculated using an image analysis software. All measurements were done in a single-blind fashion. Bone growth: Male young rats (SD) weighing 70–90 gm were divided into six groups. The average weight of the rats in each group was 73.9±1.1 gm. Indazole 1 was dissolved in DMSO and diluted with saline to a final concentration of 10 μM. One of the six groups was a control group, and the other groups were punctuated with a needle cannula alone, injected with a vehicle using a needle cannula (day 1, once), injected with Indazole 1 (day 1, once), injected with a vehicle using a needle cannula (days 1–7, daily), and injected with Indazole 1 (days 1–7, daily), respectively. […] Trabecular bone in the secondary spongiosa increased by 90% after local injection of Indazole 1 for 7 days.

SMILES strings stand for the structures.

Regarding `OCc1ccc(-c2nn(Cc3ccccc3)c3ccccc23)o1` [Indazole 1, 1-benzyl-3-(5′-hydroxymethyl-2′-furyl)-indazole], the “bone loss induced by nerve section” value with adult male rats (1 mg/kg daily for 4 weeks immediately after the cut of sciatic nerve) is given as “antagonized the bone loss”. Also, in the experiment on adult male rats (Contralateral side), the Bone volume is 11.9 ± 0.98%, the “Femur BMC” value was 0.419 ± 0.016, the “Femur BMD” value is recorded as 0.132 ± 0.003 and the Femur length is 3.95 ± 0.02 cm. For the same compound, in the experiment with adult male rats (Contralateral side), the Femur weight was determined as 1.16 ± 0.03 g, the “Tibia BMC” value is 0.282 ± 0.013, the “Tibia BMD” value is reported as 0.106 ± 0.002 and the Tibia length is 4.36 ± 0.01 cm. For the same compound, the Tibia weight with adult male rats (Contralateral side) came to 0.92 ± 0.03 g. Besides, in the experiment on adult male rats (Surgery side), the Bone volume came out at 9.43 ± 0.8%, the “Femur BMC” value is given as 0.394 ± 0.015, the “Femur BMD” value is on record as 0.129 ± 0.003 and the Femur length stood at 3.96 ± 0.01 cm. Besides, in the experiment with adult male rats (Surgery side), the Femur weight turned out to be 1.17 ± 0.03 g, the “Tibia BMC” value is 0.298 ± 0.014, the “Tibia BMD” value came out at 0.106 ± 0.002 and the Tibia length was 4.35 ± 0.01 cm. In the experiment on adult male rats (Surgery side), the Tibia weight is 0.91 ± 0.03 g. Further, the “effect on tibia length” value with Male SD rats (local injection) is reported as “not significantly affected”. In addition, the “Trabecular bone in the secondary spongiosa increased by” value with Male SD rats (local injection for 7 days) is listed as 90%. For the same compound, the “bone volume of the secondary spongiosa” value in the experiment on Male SD rats (local injection into proximal tibia, 0.1 nmole, daily for 7 days, then 7 further days, young male rats) is reported as “significantly increased”. Besides, the Tibia length with Male SD rats (local injection, n=9) is 3.32±0.02 cm.
